According to patent US20230072421A1, “TARGETED RADIOPHARMACEUTICALS FOR THE DIAGNOSIS AND TREATMENT OF PROSTATE CANCER” (Bayer AS, priority 2019, published 2023):

Tests used:
[1] = system: VCaP cells; experiment: Cell proliferation assay (CellTiter-Glo, 5-day exposure), VCaP; format: cell-based; conditions: 4000 cells/well, Th-227 labelled at 375 kBq/nmol, mean of 1 to 6 experiments
Experimental: (§1) Inhibition of cell proliferation of Thorium-227 labeled PMSA SMOL ligands was tested different prostate cancer cell lines, namely 22Rv1, VCaP, C4-2 (all from ATCC, Manassas, Va., USA) and LNCaP (DMSZ, Braunschweig). Cells were seeded using the following conditions in 384 well plates (Corning) in 30 μl of growth media at 4000 cells/well for VCaP cells and 1000 cells/well for 22Rv1, C4-2 and LNCaP cells.
(§2) Cells were cultivated an incubator at 37° C. and 5% C02 over night. […] In sister plates cell viability at treatment start (d=0) was determined using CellTiter-Glo® assay (CTG, Promega, Madison, Wis., USA), by adding 30 μl per well CTG solution, incubation for 10 min and reading of Luminescence in a PheraStarFSX instrument (BMG Labtech). After a 5-day exposure in the presenced of test compounds, cell viability of treated or untreated control cells was determined again using CellTiter-Glo® assay (Promega, Madison, Wis., USA). […] The DRC software is a Biobook Spreadsheet that was developed by Bayer AG and Bayer Business Services on the IDBS E-Workbook Suite platform (IDBS: ID Business Solutions Ltd., Guildford, UK).

[2] = system: C4-2 cells; experiment: Cell proliferation assay (CellTiter-Glo, 5-day exposure), C4-2; format: cell-based; conditions: C4-2, 1000 cells/well, Th-227 labelled at 375 kBq/nmol, mean of 1 to 6 experiments
Experimental: as §1, §2

[3] = system: 22Rv1 cells; experiment: Cell proliferation assay (CellTiter-Glo, 5-day exposure), 22Rv1; format: cell-based; conditions: 22Rv1, 1000 cells/well, Th-227 labelled at 375 kBq/nmol, mean of 1 to 6 experiments
Experimental: as §1, §2

[4] = system: LNCaP human prostate cancer cells; experiment: LNCaP xenograft efficacy study (T/C tumor area); format: in vivo, SCID mice; conditions: Example I
Experimental: (§3) SCID mice were randomly assigned to experimental groups, ten animals per group (efficacy) or n=3-5 per time point of biodistribution study. At the initiation of the study, a testosterone pellet was subcutaneously transplanted, the animals were shaved, tattooed and each cage was labeled with the cage number, study number and number of animals per cage.
(§4) LNCaP human prostate cancer cells were cultured as described according to the supplier's protocols. Cells were harvested for transplantation in a subconfluent (70%) state. Animals were injected with 5×10^6 LNCaP cells suspended in 100% Matrigel subcutaneously into the flank of the mice.
Efficacy study: When tumors reached a predetermined size in mice of 35-50 mm^2 animals were randomized into treatment and control groups (n=10 animals/group) and treatment with the defined radioactive dose was started. The i.v. application volume was 100 μl/mice.
Tumor response was assessed by determination of the tumor area (product of the longest diameter and its perpendicular) using a caliper. The animal body weight was monitored as a measure for treatment-related toxicity. Measurement of tumor area and body weight was performed two to three times weekly.
Animals were sacrificed when showing signs of toxicity (>20% body weight loss) or when tumors reached a size of approximately 200 mm^2.
Tumor growth inhibition is presented as T/C ratio (Treatment/Control) calculated with tumor areas when the vehicle control group had to be closed.

[5] = Biodistribution study in LNCaP tumor-bearing mice (Th227 counted in organs); format: in vivo, SCID mice; conditions: 500 kBq/kg; for Th-227 in Blood / Th-227 in Femur and tibia / Th-227 in Kidneys / Th-227 in Liver / Th-227 in Salivary gland / Th-227 in Spleen / Th-227 in Tumor / Th-227 in prostate: study b2999
Experimental: as §3, §4
Biodistribution study: When tumors reached a predetermined size in mice of ˜50 mm^2 animals were randomized into groups (n=3 animals/time point) and the radioactive compound was once applied intravenously. The i.v. application volume was 100 μl/mice.
At the predetermined time point, n=3 animals were sacrificed, the organs removed, weight and measured in a Germanium detector to count the Th227 in the sample.

O=C(O)CCC(NC(=O)NC(CCCCNC(=O)C(Cc1ccc2ccccc2c1)NC(=O)C1CCC(CNC(=S)Nc2ccc(CC(CN(CCNC(=O)c3ccn(CCO)c(=O)c3[O-])CCNC(=O)c3ccn(CCO)c(=O)c3[O-])CN(CCNC(=O)c3ccn(CCO)c(=O)c3[O-])CCNC(=O)c3ccn(CCO)c(=O)c3[O-])cc2)CC1)C(=O)O)C(=O)O.[227Th+4] (centres unmarked) [Example 1-F-227Th]
Proliferation assay on cancer cell lines by TTCs Default Pivot #3 IC50 [kBq/mL] VCap 4000cells 375kBq/nmol (mean) [1]: 3.07 kBq/mL | Proliferation assay on cancer cell lines by TTCs Default Pivot #3 IC50 [kBq/mL] C4-2 1000cells 375kBq/nmol (mean) [2]: 2.14 kBq/mL | Proliferation assay on cancer cell lines by TTCs Default Pivot #3 IC50 [kBq/mL] 22Rv1 1000cells 375kBq/nmol (mean) [3]: 1.06 kBq/mL | T/Carea ([4]; day 27, 2 x 400 + 2 x 750 kBq/kg weekly): 1.03 | T/Carea ([4]; day 37, 2 x 400 + 3 x 750 kBq/kg): 0.82 | Background in blood, liver and spleen (in words) ([5]; comparison of % injected dose per gram tissue): highest background | Th-227 in Blood ([5]; 0.25 h): 4.80 % ID Th-227/g organ | Th-227 in Femur and tibia ([5]; 0.25 h): 1.46 % ID Th-227/g organ | Th-227 in Kidneys ([5]; 0.25 h): 51.79 % ID Th-227/g organ | Th-227 in Liver ([5]; 0.25 h): 2.63 % ID Th-227/g organ | Th-227 in Salivary gland ([5]; 0.25 h): 0.31 % ID Th-227/g organ | Th-227 in Spleen ([5]; 0.25 h): 2.35 % ID Th-227/g organ | Th-227 in Tumor ([5]; 0.25 h): 9.36 % ID Th-227/g organ | Th-227 in prostate ([5]; 0.25 h): 3.62 % ID Th-227/g organ | Th-227 in Blood ([5]; 1 hr): 2.28 % ID Th-227/g organ | Th-227 in Femur and tibia ([5]; 1 hr): 1.68 % ID Th-227/g organ | Th-227 in Kidneys ([5]; 1 hr): 58.96 % ID Th-227/g organ | Th-227 in Liver ([5]; 1 hr): 2.41 % ID Th-227/g organ | Th-227 in Salivary gland ([5]; 1 hr): 2.68 % ID Th-227/g organ | Th-227 in Spleen ([5]; 1 hr): 1.86 % ID Th-227/g organ | Th-227 in Tumor ([5]; 1 hr): 10.58 % ID Th-227/g organ | Th-227 in prostate ([5]; 1 hr): 4.83 % ID Th-227/g organ | Th-227 in Blood ([5]; 6 hr): 0.35 % ID Th-227/g organ | Th-227 in Femur and tibia ([5]; 6 hr): 1.30 % ID Th-227/g organ | Th-227 in Kidneys ([5]; 6 hr): 67.34 % ID Th-227/g organ | Th-227 in Liver ([5]; 6 hr): 2.19 % ID Th-227/g organ | Th-227 in Salivary gland ([5]; 6 hr): 1.48 % ID Th-227/g organ | Th-227 in Spleen ([5]; 6 hr): 1.51 % ID Th-227/g organ | Th-227 in Tumor ([5]; 6 hr): 13.03 % ID Th-227/g organ | Th-227 in prostate ([5]; 6 hr): 1.97 % ID Th-227/g organ | Th-227 in Blood ([5]; 24 h): 0.06 % ID Th-227/g organ | Th-227 in Femur and tibia ([5]; 24 h): 0.88 % ID Th-227/g organ | Th-227 in Kidneys ([5]; 24 h): 34.39 % ID Th-227/g organ | Th-227 in Liver ([5]; 24 h): 2.49 % ID Th-227/g organ | Th-227 in Salivary gland ([5]; 24 h): 0.75 % ID Th-227/g organ | Th-227 in Spleen ([5]; 24 h): 0.94 % ID Th-227/g organ | Th-227 in Tumor ([5]; 24 h): 6.05 % ID Th-227/g organ | Th-227 in prostate ([5]; 24 h): 0.34 % ID Th-227/g organ | Th-227 in Blood ([5]; 72 h): 0.02 % ID Th-227/g organ | Th-227 in Femur and tibia ([5]; 72 h): 0.79 % ID Th-227/g organ | Th-227 in Kidneys ([5]; 72 h): 12.99 % ID Th-227/g organ | Th-227 in Liver ([5]; 72 h): 1.96 % ID Th-227/g organ | Th-227 in Salivary gland ([5]; 72 h): 0.73 % ID Th-227/g organ | Th-227 in Spleen ([5]; 72 h): 1.14 % ID Th-227/g organ | Th-227 in Tumor ([5]; 72 h): 3.40 % ID Th-227/g organ | Th-227 in prostate ([5]; 72 h): 0.68 % ID Th-227/g organ | Th-227 in Blood ([5]; 168 h): 0.00 % ID Th-227/g organ | Th-227 in Femur and tibia ([5]; 168 h): 1.07 % ID Th-227/g organ | Th-227 in Kidneys ([5]; 168 h): 6.79 % ID Th-227/g organ | Th-227 in Liver ([5]; 168 h): 2.14 % ID Th-227/g organ | Th-227 in Salivary gland ([5]; 168 h): 0.74 % ID Th-227/g organ | Th-227 in Spleen ([5]; 168 h): 1.34 % ID Th-227/g organ | Th-227 in Tumor ([5]; 168 h): 1.13 % ID Th-227/g organ | Th-227 in prostate ([5]; 168 h): 0.13 % ID Th-227/g organ | Th-227 in Blood ([5]; 336 h): 0.00 % ID Th-227/g organ | Th-227 in Femur and tibia ([5]; 336 h): 1.18 % ID Th-227/g organ | Th-227 in Kidneys ([5]; 336 h): 2.29 % ID Th-227/g organ | Th-227 in Liver ([5]; 336 h): 1.69 % ID Th-227/g organ | Th-227 in Salivary gland ([5]; 336 h): 0.42 % ID Th-227/g organ | Th-227 in Spleen ([5]; 336 h): 1.41 % ID Th-227/g organ | Th-227 in Tumor ([5]; 336 h): 0.74 % ID Th-227/g organ | Th-227 in prostate ([5]; 336 h): 0.22 % ID Th-227/g organ
